According to ChEMBL document CHEMBL1201862, “PubChem BioAssay data set” (2004):
Active and inactive are the calls of the source.

What was measured:
[1] = target: T1, Short transient receptor potential channel 4 (Mus musculus, UniProt Q9QUQ5); test: mouse TRPC4 channel inhibitors, dose response, cell-based, HEK293 TRPC4/mu-opioid, Fluo-4 calcium (AID 434942); assay type: functional;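 note: potency of inhibitors blocking the TRPC4 calcium response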
T1 sequence (Q9QUQ5 whole entry): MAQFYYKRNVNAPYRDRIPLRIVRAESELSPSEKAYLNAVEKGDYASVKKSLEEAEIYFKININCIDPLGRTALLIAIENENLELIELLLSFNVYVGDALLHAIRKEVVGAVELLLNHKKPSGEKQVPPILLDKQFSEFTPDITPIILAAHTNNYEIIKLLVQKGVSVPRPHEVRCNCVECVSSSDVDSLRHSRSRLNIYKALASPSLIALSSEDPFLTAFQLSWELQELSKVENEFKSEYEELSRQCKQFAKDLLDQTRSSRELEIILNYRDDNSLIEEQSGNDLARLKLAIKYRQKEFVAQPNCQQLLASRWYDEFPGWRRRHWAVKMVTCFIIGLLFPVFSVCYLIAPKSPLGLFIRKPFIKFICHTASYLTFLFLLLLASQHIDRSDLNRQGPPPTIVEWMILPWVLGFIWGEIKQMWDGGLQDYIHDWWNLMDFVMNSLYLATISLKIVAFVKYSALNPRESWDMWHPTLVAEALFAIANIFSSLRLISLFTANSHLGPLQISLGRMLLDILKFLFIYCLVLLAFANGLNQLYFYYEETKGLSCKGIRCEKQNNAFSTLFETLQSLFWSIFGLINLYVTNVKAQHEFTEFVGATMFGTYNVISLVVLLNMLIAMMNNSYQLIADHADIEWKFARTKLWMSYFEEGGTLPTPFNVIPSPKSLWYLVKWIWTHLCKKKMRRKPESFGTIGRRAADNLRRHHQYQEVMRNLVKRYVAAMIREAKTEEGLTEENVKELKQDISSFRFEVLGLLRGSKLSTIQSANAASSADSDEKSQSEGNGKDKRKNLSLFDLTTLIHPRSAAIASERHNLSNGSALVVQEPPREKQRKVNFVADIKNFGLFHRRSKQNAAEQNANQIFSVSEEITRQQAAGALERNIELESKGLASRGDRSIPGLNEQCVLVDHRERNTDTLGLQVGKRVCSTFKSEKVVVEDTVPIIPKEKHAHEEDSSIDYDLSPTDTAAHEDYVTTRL

[2] = cells; assay type: functional, cell-based
[3] = target: Glyceraldehyde-3-phosphate dehydrogenase (Homo sapiens, UniProt P04406)
[4] = cells; assay type: functional, cell-based; remark: listed apart in the source
[5] = target: Nucleotide-binding oligomerization domain-containing protein 2 (Homo sapiens, UniProt Q9HC29); test: NOD2 signaling inhibitors, cell-based, luminescence, uHTS, HEK293 (AID 1566); assay type: functional
[6] = system: HEK293; test: cells; assay type: functional, cell-based; settings: Homo sapiens
[7] = system: HEK293; test: NOD2 signaling inhibitors in MDP-stimulated cells, cell-based, uHTS, luminescence (AID 2001); assay type: functional; settings: Homo sapiens
[8] = system: HEK293; test: cells; assay type: functional, cell-based; settings: Homo sapiens; remark: listed apart in the source
[9] = system: HEK293; test: NOD1 signaling inhibitors, primary screen, cell-based, luminescence, uHTS (AID 1578); assay type: functional; settings: Homo sapiens
[10] = system: HEK293; test: cells; assay type: functional, cell-based; settings: Homo sapiens; remark: listed apart in the source
[11] = Counterscreen for IDE inhibitors: Luminescence-based cell-based high throughput dose response assay to identify compounds that are cytotoxic to HEK cells. [Related pubchem assays: 434962 (Primary screen (IDE inhibitors in singlicate)), 449730 (Counterscreen (Cytotoxicity in triplicate)), 435028 (Confirmation (IDE inhibitors in triplicate)) …; assay type: functional; settings: HEK293
[12] = target: T2, Insulin-degrading enzyme (Homo sapiens, UniProt P14735); test: Dose Response: Fluorescence polarization-based cell-based high throughput dose response assay for inhibitors of insulin-degrading enzyme (IDE). [Related pubchem assays: 434962 (Primary screen (IDE inhibitors in singlicate)), 449730 (Counterscreen (Cytotoxicity in triplicate)), 435028 (Confirmation (IDE inhibitors in triplicate)), 434984 (Summary …; assay type: functional
T2 sequence (P14735 whole entry): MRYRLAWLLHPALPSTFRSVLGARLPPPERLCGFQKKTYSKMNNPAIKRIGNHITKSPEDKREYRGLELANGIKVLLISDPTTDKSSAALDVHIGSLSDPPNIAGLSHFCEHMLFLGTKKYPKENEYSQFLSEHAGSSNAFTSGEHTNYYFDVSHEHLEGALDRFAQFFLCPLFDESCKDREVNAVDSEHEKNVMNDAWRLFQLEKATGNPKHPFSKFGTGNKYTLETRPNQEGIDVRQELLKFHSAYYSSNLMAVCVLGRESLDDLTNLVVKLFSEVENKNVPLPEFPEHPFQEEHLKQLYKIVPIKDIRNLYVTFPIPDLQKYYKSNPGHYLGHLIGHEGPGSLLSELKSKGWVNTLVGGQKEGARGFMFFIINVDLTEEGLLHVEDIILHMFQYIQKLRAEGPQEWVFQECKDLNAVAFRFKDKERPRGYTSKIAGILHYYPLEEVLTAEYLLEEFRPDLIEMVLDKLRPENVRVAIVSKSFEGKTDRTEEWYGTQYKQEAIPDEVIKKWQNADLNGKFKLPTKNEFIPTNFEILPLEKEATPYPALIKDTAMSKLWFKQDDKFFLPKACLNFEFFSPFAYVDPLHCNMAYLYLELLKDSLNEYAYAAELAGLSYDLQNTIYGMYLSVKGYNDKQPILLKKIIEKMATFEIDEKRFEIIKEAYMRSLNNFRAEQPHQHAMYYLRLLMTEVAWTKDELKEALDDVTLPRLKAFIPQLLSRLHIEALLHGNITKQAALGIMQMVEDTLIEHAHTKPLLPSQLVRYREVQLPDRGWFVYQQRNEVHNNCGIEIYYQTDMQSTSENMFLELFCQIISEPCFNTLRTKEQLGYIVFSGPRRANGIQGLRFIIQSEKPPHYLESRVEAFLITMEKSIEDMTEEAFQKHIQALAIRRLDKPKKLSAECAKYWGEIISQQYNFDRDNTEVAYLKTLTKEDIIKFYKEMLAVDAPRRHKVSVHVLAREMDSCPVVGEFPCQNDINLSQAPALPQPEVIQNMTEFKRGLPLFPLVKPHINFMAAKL

[13] = inhibitors of firefly luciferase expression or activity, dose response, H4 neuroglioma cells, luminescence (AID 1990); assay type: functional, cell-based
[14] = target: T3, Heat shock factor protein 1 (Mus musculus, UniProt P38532); test: inhibition of MG132-induced HSE-luciferase signal, confirmation, cell-based, NIH3T3, luminescence, dose retest (AID 2382); assay type: functional;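 note: NIH3T3 fibroblasts with HSF1-driven luciferase reporter stressed by proteasome inhibitor MG132; luminescence from HSF1-driven luciferase expression after 8 hours of MG132 stress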
T3 sequence (P38532 whole entry): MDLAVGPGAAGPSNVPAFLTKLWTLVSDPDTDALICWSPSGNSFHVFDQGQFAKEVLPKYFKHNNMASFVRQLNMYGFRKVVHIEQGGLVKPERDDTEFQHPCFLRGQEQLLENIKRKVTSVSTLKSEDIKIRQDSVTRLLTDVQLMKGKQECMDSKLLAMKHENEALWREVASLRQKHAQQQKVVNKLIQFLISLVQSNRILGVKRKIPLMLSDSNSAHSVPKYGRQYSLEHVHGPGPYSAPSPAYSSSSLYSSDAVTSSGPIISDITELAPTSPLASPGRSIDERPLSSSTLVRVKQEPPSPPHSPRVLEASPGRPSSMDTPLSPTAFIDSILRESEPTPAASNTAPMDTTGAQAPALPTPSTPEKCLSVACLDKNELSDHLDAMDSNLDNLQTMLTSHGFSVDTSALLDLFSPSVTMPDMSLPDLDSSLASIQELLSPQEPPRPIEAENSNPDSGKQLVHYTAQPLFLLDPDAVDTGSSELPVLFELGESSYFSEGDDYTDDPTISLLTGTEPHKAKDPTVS

[15] = target: T4, Microphthalmia-associated transcription factor (Homo sapiens, UniProt O75030); test: TRPM1 promoter luciferase signal decrease, dose response, MITF inhibitor project, cell-based, SK-MEL-5, cherry-picked, set 3 (AID 493073); assay type: functional
T4 sequence (O75030 whole entry): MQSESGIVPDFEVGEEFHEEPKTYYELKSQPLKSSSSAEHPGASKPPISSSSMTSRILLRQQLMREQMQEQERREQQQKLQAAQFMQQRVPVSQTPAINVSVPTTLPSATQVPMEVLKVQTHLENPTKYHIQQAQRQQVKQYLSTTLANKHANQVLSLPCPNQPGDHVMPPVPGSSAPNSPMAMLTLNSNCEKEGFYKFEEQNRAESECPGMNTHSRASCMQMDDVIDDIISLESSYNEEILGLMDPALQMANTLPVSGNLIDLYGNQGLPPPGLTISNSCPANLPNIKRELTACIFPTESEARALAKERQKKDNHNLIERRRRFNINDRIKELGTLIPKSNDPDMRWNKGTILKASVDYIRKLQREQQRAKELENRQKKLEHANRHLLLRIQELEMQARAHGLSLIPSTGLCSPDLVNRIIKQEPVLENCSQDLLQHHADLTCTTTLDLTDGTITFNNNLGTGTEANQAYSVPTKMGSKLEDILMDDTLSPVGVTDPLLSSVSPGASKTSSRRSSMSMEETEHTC

[16] = inhibitors of SNCA 5'UTR-driven reporter translation, confirmation, H4 neuroglioma cells, luminescence (AID 1988); assay type: functional, cell-based
[17] = target: FAD-linked sulfhydryl oxidase ALR (Homo sapiens, UniProt P55789); test: inhibitors of human ALR sulfhydryl oxidase, dose response, biochemical, H2O2 detection, luminescence, cherry-pick (AID 493248)
Sequence of FAD-linked sulfhydryl oxidase ALR (P55789 whole entry): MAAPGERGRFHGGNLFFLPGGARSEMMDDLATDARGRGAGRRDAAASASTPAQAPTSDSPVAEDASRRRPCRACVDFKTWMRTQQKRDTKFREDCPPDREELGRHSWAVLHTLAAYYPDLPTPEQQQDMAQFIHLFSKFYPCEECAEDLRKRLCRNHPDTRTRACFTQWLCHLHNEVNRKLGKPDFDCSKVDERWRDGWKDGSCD

Sequence of Nucleotide-binding oligomerization domain-containing protein 2 (Q9HC29 whole entry, the tested form may be a part): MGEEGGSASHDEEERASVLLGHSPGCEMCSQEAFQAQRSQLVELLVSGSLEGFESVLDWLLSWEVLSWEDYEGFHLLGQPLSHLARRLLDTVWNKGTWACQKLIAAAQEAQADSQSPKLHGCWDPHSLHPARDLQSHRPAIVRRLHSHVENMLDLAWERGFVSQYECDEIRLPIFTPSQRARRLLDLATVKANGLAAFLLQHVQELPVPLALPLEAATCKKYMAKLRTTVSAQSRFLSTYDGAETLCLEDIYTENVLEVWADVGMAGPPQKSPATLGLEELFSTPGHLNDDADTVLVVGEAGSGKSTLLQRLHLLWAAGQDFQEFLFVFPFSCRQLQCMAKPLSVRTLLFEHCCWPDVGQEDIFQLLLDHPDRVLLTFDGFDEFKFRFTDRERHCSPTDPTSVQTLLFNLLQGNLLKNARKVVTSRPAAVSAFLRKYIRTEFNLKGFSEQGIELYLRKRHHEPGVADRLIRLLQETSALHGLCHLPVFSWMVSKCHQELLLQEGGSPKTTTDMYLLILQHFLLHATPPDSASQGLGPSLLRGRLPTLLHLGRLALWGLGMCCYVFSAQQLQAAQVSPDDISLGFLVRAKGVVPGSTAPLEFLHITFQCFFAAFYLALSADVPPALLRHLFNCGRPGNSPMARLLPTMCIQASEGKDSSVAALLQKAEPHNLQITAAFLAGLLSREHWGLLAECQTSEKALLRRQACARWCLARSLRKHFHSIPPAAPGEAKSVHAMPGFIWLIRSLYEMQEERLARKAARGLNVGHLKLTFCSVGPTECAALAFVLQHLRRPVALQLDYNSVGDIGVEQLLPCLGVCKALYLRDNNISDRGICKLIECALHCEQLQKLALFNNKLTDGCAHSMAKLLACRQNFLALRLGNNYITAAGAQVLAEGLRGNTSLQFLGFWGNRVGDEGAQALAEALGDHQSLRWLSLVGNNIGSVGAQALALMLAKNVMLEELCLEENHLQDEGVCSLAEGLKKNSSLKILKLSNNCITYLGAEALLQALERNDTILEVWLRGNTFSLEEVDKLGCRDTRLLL
Sequence of Glyceraldehyde-3-phosphate dehydrogenase (P04406 whole entry): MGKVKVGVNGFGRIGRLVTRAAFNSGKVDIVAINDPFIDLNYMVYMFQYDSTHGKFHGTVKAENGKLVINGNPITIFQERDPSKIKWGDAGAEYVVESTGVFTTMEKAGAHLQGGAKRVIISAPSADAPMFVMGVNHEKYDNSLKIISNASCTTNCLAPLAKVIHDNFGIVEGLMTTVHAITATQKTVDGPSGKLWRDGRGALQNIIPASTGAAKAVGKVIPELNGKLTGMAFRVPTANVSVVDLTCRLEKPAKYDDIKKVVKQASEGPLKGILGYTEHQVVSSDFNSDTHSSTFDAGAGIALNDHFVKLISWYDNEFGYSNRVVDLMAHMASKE

Structure (SMILES)	EC50 [5]	IC50 [6]	IC50 [7]	IC50 [8]	EC50 [9]	IC50 [10]	further results
CCCn1c(=O)c2ccccc2n2c(SCCOc3ccc(C)cc3)nnc12	–	–	–	–	–	–	EC50 [1]: 1.68 µM (active)
O=C(O)c1ccc2cccc(O)c2n1	–	–	–	–	–	–	EC50 [2]: > 350 µM (not active); IC50 [3]: > 100 µM (not active); EC50 [4]: > 350 µM (not active)
COc1ccccc1-c1nc(C#N)c(N2CCN(c3cccc(Cl)c3)CC2)o1	11.2 µM (active)	> 20 µM (inactive)	17.4 µM (inactive)	18.5 µM (active)	8.65 µM (active)	> 20 µM (inactive)	–
Cc1ccc(NC(=O)Cc2cc(C(=O)O)c3ccccc3n2)c(C)c1	6.77 µM (active)	> 20 µM (inactive)	8.76 µM (inactive)	11.7 µM (active)	7.04 µM (active)	> 20 µM (inactive)	–
O=C(O)c1ccc(OCc2ccc(C(=O)O)o2)cc1	–	–	–	–	–	–	IC50 [3]: > 100 µM (not active)
CC1CCc2c(sc3ncnc(SCC(=O)Nc4ccc(C(=O)O)cc4)c23)C1 (stereo not drawn)	–	–	–	–	–	–	EC50 [1]: 6.68 µM (active)
Cc1ccc(-c2cc(C(=O)Nc3ccc(S(=O)(=O)Nc4ncccn4)cc3)[nH]n2)c(O)c1C	–	–	–	–	–	–	IC50 [11]: > 55.7 µM (not active); IC50 [12]: 17.7 µM (not active)
O=C(Nc1ccc(Cl)cn1)c1ccc(Br)c(S(=O)(=O)N2CCCCC2)c1	> 20 µM (inactive)	> 20 µM (inactive)	9.77 µM (active)	7.73 µM (active)	9.56 µM (active)	18.7 µM (active)	–
CN(C)c1ccc(/C=C2\SC(=O)N(CCc3nnc(N)s3)C2=O)cc1	–	–	–	–	–	–	EC50 [13]: 8.39 µM (inconclusive); EC50 [14]: 6.52 µM (inconclusive); IC50 [11]: 47.8 µM (not active); AC50 [15]: 2.54 µM (active); EC50 [16]: 4.74 µM (active); AC50 [17]: 1.87 µM (active); IC50 [12]: > 55.9 µM (not active)
